We go through eleven molecules from ChEMBL document CHEMBL1201862, “PubChem BioAssay data set” (2004).

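Results reflect a 48-hour exposure of cells in 96-well plates to compound at five concentrations. GI50: concentration for 50% inhibition of growth.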 Active and inactive are the calls of the source. No stated cut-off is given here; in the data, active = GI50 up to about 1.1 µM and inactive = higher.

Test in all cases: NCI anticancer screen, dose series, 48 h
In assay [1] the test system is HT-29.
The test system of assay [2] is MDA-MB-435.
Assay [3] relates to MOLT-4.
Assay [4] deals with Malme-3M.
In assay [5] the test system is NCI-H23.
The test system of assay [6] is OVCAR-5.
Assay [7] deals with OVCAR-8.
Assay [8] relates to SK-MEL-2.
Assay [9] relates to SNB-19.
Assay [10] relates to SNB-75.
The test system of assay [11] is SR.
For assay [12], the system named is SW-620.
Assay [13] has as its system T47D.
Assay [14] relates to UACC-257.
Assay [15] relates to UO-31.
The subject of assay [16] is CCRF-CEM.
Assay [17] concerns HL-60.
Assay [18] deals with NCI-H522.
Assay [19] deals with SN12C.
Assay [20] deals with HOP-92.

As to `CC1(C)C2CCC1(C)[C@H](O)[C@H]2Nc1cc(C(F)(F)F)cc(C(F)(F)F)c1` (stereo not given in full), the GI50 in [1] was 3.32 µM (inactive); in [2], 3.42 µM (inactive); in assay [3], 2.19 µM (inactive); in [4], 3.27 µM (inactive); in assay [5], 2.36 µM (inactive); in assay [6], 7.41 µM (inactive). The GI50 in assay [7] is 3.21 µM (inactive); in [8], 2.35 µM (inactive); in assay [9], 4.48 µM (inactive); in assay [10], 0.0252 µM (active); in assay [11], 2.95 µM (inactive); in assay [12], 3.36 µM (inactive). Further, the GI50 in [13] is 2.59 µM (inactive); in assay [14], 3.78 µM (inactive); in [15], 3.51 µM (inactive).
Regarding `CC(Cc1ccc2c(c1)OCO2)N(C)C(=O)C1=CCN(C)CC1` (stereo not given), the GI50 in assay [16], in assay [17], in assay [1], in [2], in assay [3] and in [4] was > 100 µM (inactive) in each case. Moreover, the GI50 in assay [5], in assay [18], in assay [6], in [7], in assay [8] and in [19] was > 100 µM (inactive) each time. In addition, the GI50 is > 100 µM (inactive) in [9]; 46.2 µM (inactive) in assay [10]; > 100 µM (inactive) in [11]; > 100 µM (inactive) in assay [12]; > 100 µM (inactive) in assay [13]; > 100 µM (inactive) in [14]. Besides, the GI50 in assay [15] is > 100 µM (inactive).
Consider `CSc1c(C#N)c(N)n(-c2ccc(C)cc2)c(=O)c1C#N`, for which the GI50 is 94.8 µM (inactive) in assay [16]; > 100 µM (inactive) in assay [17]; > 100 µM (inactive) in assay [1]; > 100 µM (inactive) in assay [2]; > 100 µM (inactive) in [3]; > 100 µM (inactive) in assay [4]. For the same molecule, the GI50 in [5] was > 100 µM (inactive); in assay [18], 98.9 µM (inactive); in [6] it was > 100 µM (inactive); in assay [7] it was > 100 µM (inactive); in assay [8], > 100 µM (inactive); in assay [19], > 100 µM (inactive). Further, the GI50 in [9], in [10], in assay [11], in assay [12], in [13] and in assay [14] was > 100 µM (inactive) each time. For the same molecule, in [15], the GI50 was 50.4 µM (inactive).
Consider `O=C(O)[C@@H]1[C@H](C(=O)O)[C@H](C(=O)O)C[C@@H]1C(=O)O`, for which the GI50 in assay [20], in [1], in assay [2], in assay [3], in [4] and in assay [5] was > 100 µM (inactive) throughout. In addition, the GI50 in [18], in assay [6], in assay [7], in [8], in assay [19] and in assay [9] was > 100 µM (inactive) throughout. Moreover, the GI50 in assay [10], in [11], in [12], in assay [13], in assay [14] and in assay [15] was > 100 µM (inactive) in each case.
As for `COc1ccc(CNc2nc3cc(C(F)(F)F)ccc3nc2C(=O)O)cc1`, the GI50 is 27.1 µM (inactive) in assay [16]; 20.3 µM (inactive) in [20]; 24 µM (inactive) in assay [1]; 21.3 µM (inactive) in assay [2]; 21.8 µM (inactive) in assay [3]; 24.5 µM (inactive) in [5]. The GI50 was 28.4 µM (inactive) in assay [6]; 32.3 µM (inactive) in assay [7]; 23.1 µM (inactive) in [8]; 21.4 µM (inactive) in assay [19]; 31.2 µM (inactive) in assay [9]; 38 µM (inactive) in [10]. Moreover, the GI50 is 24.5 µM (inactive) in assay [11]; 31.1 µM (inactive) in assay [12]; 25.7 µM (inactive) in assay [13]; 24.8 µM (inactive) in [14]; 17.8 µM (inactive) in assay [15].
As for `COc1ccc2cc(CNCCCCCCNCc3ccc4cc(OC)ccc4c3)ccc2c1`, the GI50 was 0.153 µM (active) in assay [16]; 0.181 µM (active) in assay [17]; 0.186 µM (active) in [1]; 0.204 µM (active) in [2]; 0.205 µM (active) in assay [3]; 1.05 µM (active) in assay [4]. The GI50 is 2.11 µM (inactive) in assay [5]; 0.64 µM (active) in assay [18]; 0.885 µM (active) in assay [6]; 0.531 µM (active) in assay [7]; 1.24 µM (inactive) in assay [8]; 1.33 µM (inactive) in assay [19]. The GI50 in assay [9] was 0.785 µM (active); in assay [10], 0.815 µM (active); in assay [11] it was 0.184 µM (active); in assay [12] it was 0.182 µM (active); in assay [13], 0.452 µM (active); in assay [14] it was 1.83 µM (inactive). In addition, the GI50 in assay [15] was 1.63 µM (inactive).
For the molecule `C=C(Br)CN(CC(=C)Br)C(C)=O`, the GI50 in assay [16], in assay [17], in assay [1], in assay [2], in [3] and in assay [4] was > 100 µM (inactive) in each case. The GI50 in [5], in assay [18], in [6], in assay [7], in [8] and in assay [19] was > 100 µM (inactive) in each case. The GI50 in [9] was 78.9 µM (inactive); in [10] it was > 100 µM (inactive); in [11] it was > 100 µM (inactive); in [12], > 100 µM (inactive); in assay [13] it was > 100 µM (inactive); in assay [14], > 100 µM (inactive). Besides, in assay [15], the GI50 is > 100 µM (inactive).
`C=C(C)OCOCCOC`: the GI50 in assay [16], in [17], in [1], in assay [2], in assay [3] and in assay [4] was > 100 µM (inactive) throughout. Also, the GI50 in [5], in [18], in assay [6], in assay [7], in assay [8] and in [19] was > 100 µM (inactive) each time. Besides, the GI50 in [9], in [10], in assay [11], in assay [12], in assay [13] and in assay [14] was > 100 µM (inactive) throughout. In assay [15], the GI50 was > 100 µM (inactive).
In the case of `O=c1c2ccccc2n2n1Cc1ccccc1C2`, the GI50 in assay [16], in assay [17], in assay [20], in assay [1], in assay [2] and in assay [3] was > 100 µM (inactive) in each case. For the same molecule, the GI50 in [4], in [5], in [18], in assay [7], in assay [19] and in assay [9] was > 100 µM (inactive) in each case. Moreover, the GI50 was 58.3 µM (inactive) in assay [10]; > 100 µM (inactive) in assay [11]; > 100 µM (inactive) in [12]; > 100 µM (inactive) in assay [13]; > 100 µM (inactive) in assay [14]; 86.3 µM (inactive) in assay [15].
Take `ON(CCc1ccccn1)Cc1ccccc1`: the GI50 in assay [20], in assay [1], in [2], in assay [3], in [4] and in assay [5] was > 100 µM (inactive) throughout. Also, the GI50 in assay [18], in assay [6], in [7], in [8], in [19] and in assay [9] was > 100 µM (inactive) in each case. In addition, the GI50 in assay [10], in assay [11], in assay [12], in assay [13], in assay [14] and in [15] was > 100 µM (inactive) throughout.
On to `CC(C)N(C(=O)C12C3(C(=O)OC(C)(C)C)C4C5(C#N)C3C1(C(=O)OC(C)(C)C)C5C42C(=O)OC(C)(C)C)C(C)C` (stereo not given), for which the GI50 in assay [16] was 10.9 µM (inactive); in [17], 20.1 µM (inactive); in assay [20] it was 8.32 µM (inactive); in assay [1] it was 34.6 µM (inactive); in assay [2], 27.5 µM (inactive); in [3], 13.6 µM (inactive). For the same molecule, the GI50 in assay [5] is > 100 µM (inactive); in [18] it was 35.3 µM (inactive); in assay [6] it was > 100 µM (inactive); in assay [7], > 100 µM (inactive); in assay [8] it was > 100 µM (inactive); in [19], > 100 µM (inactive). For the same molecule, the GI50 in assay [9] was > 100 µM (inactive); in [10], 0.149 µM (active); in assay [11], 21.7 µM (inactive); in [12] it was 24.9 µM (inactive); in assay [13] it was 31.9 µM (inactive); in assay [14], 28.9 µM (inactive). The GI50 in assay [15] was 60.4 µM (inactive).
